Test results from ChEMBL document CHEMBL3244168, “Synthesis and antitumor activity of preactivated isophosphamide analogues bearing modified alkylating functionalities” (J Med Chem, 1978).
Values after ≈ are worked out from the molar mass of the structure shown.

Columns and labels:
Rattus norvegicus [1] = test: Acute toxicity in po dosed Wistar rat; format: organism-based; conditions: in vivo
Mus musculus [2] = test: Acute toxicity in iv dosed BDF1 mouse; format: organism-based; conditions: in vivo
L1210 [3] = test: Cytotoxicity against mouse L1210 cells assessed as growth inhibition after 72 hrs; format: functional; conditions: L1210, 72 h, read-out: ED50 (the source's name)
L1210 [4] = test: Antileukemic activity against mouse L1210 cells allografted in BDF1 mouse assessed as mean survival time at 200 mg/kg, ip administered 24 hrs (Rvb 4.6 +/- 0.16 days); format: functional; conditions: route intraperitoneal
L1210 [5] = test: Antileukemic activity against mouse L1210 cells allografted in BDF1 mouse assessed as increase in life span at 20 mg/kg, ip administered 24 hrs relative to control; format: functional; conditions: route intraperitoneal
L1210 [6] = test: Antileukemic activity against mouse L1210 cells allografted in po dosed BDF1 mouse assessed as survival over 60 days administered 24 hrs; format: functional; conditions: read-out: MED
Mus musculus [7] = test: Acute toxicity in ip dosed BDF1 mouse; format: organism-based; conditions: in vivo
L1210 [8] = test: Antileukemic activity against mouse L1210 cells allografted in ip dosed BDF1 mouse assessed as maximum tolerated dose for survival over 30 days administered 24 hrs; format: functional
L1210 [9] = test: Antileukemic activity against mouse L1210 cells allografted in BDF1 mouse assessed as increase in life span at 200 mg/kg, ip administered 24 hrs relative to control; format: functional; conditions: route intraperitoneal
L1210 [10] = test: Antileukemic activity against mouse L1210 cells allografted in ip dosed BDF1 mouse assessed as survival over 60 days administered 24 hrs; format: functional; conditions: read-out: MED
L1210 [11] = test: Antileukemic activity against mouse L1210 cells allografted in ip dosed BDF1 mouse administered 24 hrs; format: functional
Rattus norvegicus [12] = test: Acute toxicity in ip dosed Wistar rat; format: organism-based; conditions: in vivo
L1210 [13] = test: Antileukemic activity against mouse L1210 cells allografted in BDF1 mouse assessed as mean survival time at 20 mg/kg, ip administered 24 hrs (Rvb 4.6 +/- 0.16 days); format: functional; conditions: route intraperitoneal
L1210 [14] = test: Ratio of Cmax to Cmin for antileukemic activity against mouse L1210 cells allografted in ip dosed BDF1 mouse assessed as survival over 60 days; format: functional
L1210 [15] = test: Antileukemic activity against mouse L1210 cells allografted in BDF1 mouse assessed as increase in life span at 50 mg/kg, ip administered 24 hrs relative to control; format: functional; conditions: route intraperitoneal
L1210 [16] = test: Antileukemic activity against mouse L1210 cells allografted in iv dosed BDF1 mouse assessed as survival over 60 days administered 24 hrs; format: functional; conditions: read-out: MED
L1210 [17] = test: Antileukemic activity against mouse L1210 cells allografted in BDF1 mouse assessed as mean survival time at 50 mg/kg, ip administered 24 hrs (Rvb 4.6 +/- 0.16 days); format: functional; conditions: route intraperitoneal
L1210 [18] = test: Antileukemic activity against mouse L1210 cells allografted in iv dosed BDF1 mouse assessed as maximum tolerated dose for survival over 60 days administered 24 hrs; format: functional
L1210 [19] = test: Antileukemic activity against mouse L1210 cells allografted in ip dosed BDF1 mouse assessed as maximum tolerated dose for survival over 60 days administered 24 hrs; format: functional
L1210 [20] = test: Ratio of Cmax to Cmin for antileukemic activity against mouse L1210 cells allografted in po dosed BDF1 mouse assessed as survival over 60 days; format: functional
Rattus norvegicus [21] = test: Acute toxicity in iv dosed Wistar rat; format: organism-based; conditions: in vivo
L1210 [22] = test: Antileukemic activity against mouse L1210 cells allografted in po dosed BDF1 mouse assessed as maximum tolerated dose for survival over 60 days administered 24 hrs; format: functional
Mus musculus [23] = test: Acute toxicity in po dosed BDF1 mouse; format: organism-based; conditions: in vivo
L1210 [24] = test: Antileukemic activity against mouse L1210 cells allografted in BDF1 mouse assessed as mean survival time at 100 mg/kg, ip administered 24 hrs (Rvb 4.6 +/- 0.16 days); format: functional; conditions: route intraperitoneal
L1210 [25] = test: Ratio of ILSmax to ILS30 for antileukemic activity against mouse L1210 cells allografted in ip dosed BDF1 mouse; format: functional
L1210 [26] = test: Ratio of Cmax to Cmin for antileukemic activity against mouse L1210 cells allografted in iv dosed BDF1 mouse assessed as survival over 60 days; format: functional
L1210 [27] = test: Antileukemic activity against mouse L1210 cells allografted in BDF1 mouse assessed as increase in life span at 100 mg/kg, ip administered 24 hrs relative to control; format: functional; conditions: route intraperitoneal
L1210 [28] = test: Antileukemic activity against mouse L1210 cells allografted in BDF1 mouse assessed as increase in life span at 400 mg/kg, ip administered 24 hrs relative to control
L1210 [29] = test: Antileukemic activity against mouse L1210 cells allografted in BDF1 mouse assessed as increase in life span at 530 mg/kg, ip administered 24 hrs relative to control; format: functional; conditions: route intraperitoneal
L1210 [30] = test: Antileukemic activity against mouse L1210 cells allografted in BDF1 mouse assessed as mean survival time at 130 mg/kg, ip administered 24 hrs (Rvb 4.6 +/- 0.16 days); format: functional; conditions: route intraperitoneal
L1210 [31] = test: Antileukemic activity against mouse L1210 cells allografted in BDF1 mouse assessed as increase in life span at 130 mg/kg, ip administered 24 hrs relative to control; format: functional; conditions: route intraperitoneal
L1210 [32] = test: Antileukemic activity against mouse L1210 cells allografted in BDF1 mouse assessed as mean survival time at 530 mg/kg, ip administered 24 hrs (Rvb 4.6 +/- 0.16 days); format: functional; conditions: route intraperitoneal
L1210 [33] = test: Antileukemic activity against mouse L1210 cells allografted in BDF1 mouse assessed as increase in life span at 70 mg/kg, ip administered 24 hrs relative to control; format: functional; conditions: route intraperitoneal
L1210 [34] = test: Antileukemic activity against mouse L1210 cells allografted in BDF1 mouse assessed as mean survival time at 330 mg/kg, ip administered 24 hrs (Rvb 4.6 +/- 0.16 days); format: functional; conditions: route intraperitoneal
L1210 [35] = test: Antileukemic activity against mouse L1210 cells allografted in BDF1 mouse assessed as mean survival time at 70 mg/kg, ip administered 24 hrs (Rvb 4.6 +/- 0.16 days); format: functional; conditions: route intraperitoneal
L1210 [36] = test: Antileukemic activity against mouse L1210 cells allografted in BDF1 mouse assessed as increase in life span at 330 mg/kg, ip administered 24 hrs relative to control; format: functional; conditions: route intraperitoneal
Mus musculus [37] = test: Toxicity in BDF1 mouse allografted with mouse L1210 cells assessed as mortality at 80 mg/kg, ip administered 24 hrs measured within 30 days; format: organism-based; parameters: dose 80 mg/kg, route intraperitoneal; conditions: in vivo

Compound `O=P1(NCCCl)OCCC(OO)N1CCCl` (stereo not drawn) has an LD10 (Rattus norvegicus [1]) of 800 mg/kg, an LD10 (Mus musculus [2]) of 220 mg/kg and an EC50 (L1210 [3]) of 1.8 µg/mL (≈ 6.14 µM). It also gave an MST (L1210 [4]) greater than 26.5 days, an ILS at 20 mg/kg (L1210 [5]) of 93% and a minimal effective dose (L1210 [6]) of 400 mg/kg. For the same compound, the LD10 (Mus musculus [7]) was 220 mg/kg, the ILSmax (L1210 [8]) was 100 mg/kg and the ILS at 200 mg/kg (L1210 [9]) was greater than 476%. The minimal effective dose (L1210 [10]) was 30 mg/kg, the ILS30 (L1210 [11]) was 15 mg/kg and the LD10 (Rattus norvegicus [12]) was 250 mg/kg. It also gave an MST (L1210 [13]) of 8.9 days, a Ratio (L1210 [14]) of 2.3 and an ILS at 50 mg/kg (L1210 [15]) of 172%. For the same compound, the minimal effective dose (L1210 [16]) was 90 mg/kg, the MST (L1210 [17]) was 12.5 days and the MTD (L1210 [18]) was 160 mg/kg. It also gave an MTD (L1210 [19]) of 70 mg/kg, a Ratio (L1210 [20]) of 1 and an LD10 (Rattus norvegicus [21]) of 250 mg/kg. For the same compound, the MTD (L1210 [22]) was 400 mg/kg, the LD10 (Mus musculus [23]) was 1000 mg/kg and the MST (L1210 [24]) was greater than 23.8 days. It also gave a Ratio (L1210 [25]) of 7, a Ratio (L1210 [26]) of 1.8 and an ILS at 100 mg/kg (L1210 [27]) greater than 416%.
`O=P1(N(CCCl)CCCl)NCCCO1` (stereo not drawn) [CYCLOPHOSPHAMIDE ANHYDROUS] was tested, and the MST (L1210 [4]) was greater than 18.9 days, the minimal effective dose (L1210 [6]) was 200 mg/kg and the ILS at 200 mg/kg (L1210 [9]) was greater than 310%. The minimal effective dose (L1210 [10]) was 100 mg/kg, the Ratio (L1210 [14]) was 2 and the ILS at 50 mg/kg (L1210 [15]) was 68%. For the same compound, the minimal effective dose (L1210 [16]) was 200 mg/kg, the MST (L1210 [17]) was 7.8 days and the ILS at 400 mg/kg (L1210 [28]) was greater than 283%. For the same compound, the MTD (L1210 [18]) was 200 mg/kg, the MTD (L1210 [19]) was 200 mg/kg and the Ratio (L1210 [20]) was 1. The MTD (L1210 [22]) was 200 mg/kg, the MST (L1210 [24]) was 12.4 days and the Ratio (L1210 [26]) was 1. The ILS at 100 mg/kg (L1210 [27]) was 169%.
With `O=P1(NCCCl)OCCCN1CCCl` (stereo not drawn) [IFOSFAMIDE] the ILS at 530 mg/kg (L1210 [29]) was greater than 251%, the minimal effective dose (L1210 [6]) was 250 mg/kg and the MST (L1210 [30]) was 11.9 days. For the same compound, the ILS at 130 mg/kg (L1210 [31]) was 158%, the MST (L1210 [32]) was greater than 16.5 days and the ILS at 70 mg/kg (L1210 [33]) was 90%. The minimal effective dose (L1210 [16]) was 280 mg/kg, the MTD (L1210 [18]) was 320 mg/kg and the Ratio (L1210 [20]) was 1. It also gave an MST (L1210 [34]) greater than 24.3 days, an MTD (L1210 [22]) of 250 mg/kg and an MST (L1210 [35]) of 8.8 days. The ILS at 330 mg/kg (L1210 [36]) was greater than 427% and the Ratio (L1210 [26]) was 1.1.
`CN(CCBr)P1(=O)OCCC(OO)N1CCCl` (stereo not drawn) showed an EC50 (L1210 [3]) of 0.3 µg/mL (≈ 0.853 µM), an ILSmax (L1210 [8]) of 70 mg/kg and an ILS30 (L1210 [11]) of 6 mg/kg. It also gave a Ratio (L1210 [25]) of 12.
`CS(=O)(=O)OCCNP1(=O)OCCC(OO)N1CCOS(C)(=O)=O` (stereo not drawn) showed an EC50 (L1210 [3]) of 3.9 µg/mL (≈ 9.46 µM), an ILSmax (L1210 [8]) of 50 mg/kg and an ILS30 (L1210 [11]) of 25 mg/kg. The Ratio (L1210 [25]) was 2.
`CCS(=O)(=O)OCCN1C(OO)CCOP1(=O)N(C)CCCl` (stereo not drawn) was tested, and the EC50 (L1210 [3]) was 1 µg/mL (≈ 2.63 µM), the ILSmax (L1210 [8]) was 70 mg/kg and the ILS30 (L1210 [11]) was 5 mg/kg. The Ratio (L1210 [25]) was 14.
For `CS(=O)(=O)OCCN1C(OO)CCOP1(=O)N(CCCl)CCCl` (stereo not drawn), the EC50 (L1210 [3]) was 0.06 µg/mL (≈ 0.144 µM), the Activity (Mus musculus [37]) was “Toxic” and the ILSmax (L1210 [8]) was 80 mg/kg. It also gave an ILS30 (L1210 [11]) of 10 mg/kg and a Ratio (L1210 [25]) of 8.
Compound `CCS(=O)(=O)OCCN(C)P1(=O)OCCC(OO)N1CCCl` (stereo not drawn) has an EC50 (L1210 [3]) of 0.8 µg/mL (≈ 2.1 µM), an ILSmax (L1210 [8]) of 80 mg/kg and an ILS30 (L1210 [11]) of 10 mg/kg. The Ratio (L1210 [25]) was 8.
